Measurements reported in US7056940B2, “Insecticidal 3-(2,6-disubstituted phenyl)-5-[5-arylthien-2-yl]-1,2,4-triazoles” (Dow AgroSciences LLC, priority 2001, dated 2006).

How the values were obtained:
Assay type in all cases: in vivo
[1] = tested on: Beet Armyworm (Spodoptera exigua); assay: Insecticidal test for beet armyworm, treated lepidopteran diet; design: key: A: 90–100; B: 80–89; C: 70–79; D: 60–69; E: 50–59; F: less than 50; G: Inactive; details: on diet surface, second-instar larvae, 5 days
Excerpt: (§1) The compounds are useful for reducing populations of insects and mites and are useful in a method of inhibiting an insect or mite population which comprises applying to a locus of the insect or mite an effective insect- or mite-inactivating amount of a compound of formula (1). The “locus” of insects or mites is a term used herein to refer to the environment in which the insects or mites live or where their eggs are present, including the air surrounding them, the food they eat, or objects which they contact. For example, insects or mites which eat or contact edible or ornamental plants can be controlled by applying the active compound to plant parts such as the seed, seedling, or cutting which is planted, the leaves, stems, fruits, grain, or roots, or to the soil in which the roots are growing. It is contemplated that the compounds might also be useful to protect textiles, paper, stored grain, seeds, domesticated animals, buildings or human beings by applying an active compound to or near such objects. The term “inhibiting an insect or mite” refers to a decrease in the numbers of living insects or mites, or a decrease in the number of viable insect or mite eggs. The extent of reduction accomplished by a compound depends, of course, upon the application rate of the compound, the particular compound used, and the target insect or mite species. At least an inactivating amount should be used. The terms “insect-inactivating amount” and “mite-inactivating amount” are used to describe the amount, which is sufficient to cause a measurable reduction in the treated insect or mite population. Generally an amount in the range from about 1 to about 1000 ppm by weight active compound is used. For example, insects and mites which can be inhibited include, but are not limited to: • Lepidoptera—Heliothis spp., Helicoverpa spp., Spodoptera spp., Mythimna unipuncta, Agrotis ipsilon, Earias spp., Euxoa auxiliaris, Trichoplusia ni, Anticarsia gemmatalis, Rachiplusia nu, Plutella xylostella, Chilo spp., Scirpophaga incertulas, Sesamia inferens, Cnaphalocrocis medinalis, Ostrinia nubilalis, Cydia pomonella, Carposina niponensis, Adoxophyes orana, Archips argyrospilus, Pandemis heparana, Epinotia aporema, Eupoecilia ambiguella, Lobesia botrana, Polychrosis viteana, Pectinophora gossypiella, Pieris rapae, Phyllonorycter spp., Leucoptera malifoliella, Phyllocnisitis citrella • Coleoptera—Diabrotica spp., Leptinotarsa decemlineata, Oulema oryzae, Anthonomus grandis, Lissorhoptrus oryzophilus, Agriotes spp., Melanotus communis, Popillia japonica, Cyclocephala spp., Tribolium spp. • Homoptera—Aphis spp., Myzus persicae, Rhopalosiphum spp., Dysaphis plantaginea, Toxoptera spp., Macrosiphum euphorbiae, Aulacorthum solani, Sitobion avenae, Metopolophium dirhodum, Schizaphis graminum, Brachycolus noxius, Nephotettix spp., Nilaparvata lugens, Sogatella furcifera, Laodelphax striatellus, Bemisia tabaci, Trialeurodes vaporariorum, Aleurodes proletella, Aleurothrixus floccosus, Quadraspidiotus perniciosus, Unaspis yanonensis, Ceroplastes rubens, Aonidiella aurantii • Hemiptera—Lygus spp., Eurygaster maura, Nezara viridula, Piezodorus guildingi, Leptocorisa varicornis • Thysanoptera—Frankliniella occidentalis, Thrips spp., Scirtothrips dorsalis • Isoptera—Reticulitermes flavipes, Coptotermes formosanus • Orthoptera—Blattella germanica, Blatta orientalis, Gryllotalpa spp. • Diptera—Liriomyza spp., Musca domestica, Aedes spp., Culex spp., Anopheles spp. • Hymenoptera—Iridomyrmex humilis, Solenopsis spp., Monomorium pharaonis, Atta spp., Pogonomyrmex spp., Camponotus spp. • Siphonaptera—Ctenophalides spp., Pulex irritans • Acarina—Tetranychus spp., Panonychus spp., Eotetranychus carpini, Phyllocoptruta oleivora, Aculus pelekassi, Brevipalpus phoenicis, Boophilus spp., Dermacentor variabilis, Rhipicephalus sanguineus, Amblyomma americanum, Ixodes spp., Notoedres cati, Sarcoptes scabiei, Dermatophagoides spp. […]

[2] = tested on: Two-spotted Spider Mite (Tetranychus urticae); assay: Insecticidal test for two-spotted spider mite, ovicide method; design: key: A: 90–100; B: 80–89; C: 70–79; D: 60–69; E: 50–59; F: less than 50; G: Inactive; details: cotton leaf discs, 6 days
Method: Insecticidal Test for Two-spotted Spider Mite (Tetranychus urticae)
Ten adult female two-spotted spider mites were placed on eight 2.2 cm leaf discs of cotton leaf, allowed to oviposit over 24 hours, and thereafter removed. […] Discs were placed on an agar substrate and held at 24° C. and 90% RH for 6 days.

[3] = tested on: Cabbage Looper (Trichoplusia ni); assay: Insecticidal test for cabbage looper, treated cabbage leaf disc; design: key: A: 90–100; B: 80–89; C: 70–79; D: 60–69; E: 50–59; F: less than 50; G: Inactive; details: cabbage leaf-dip, 2nd instar larvae, 5 days
Excerpt: as §1

[4] = tested on: Tobacco Budworm (Heliothis virescens); assay: Insecticidal test for tobacco budworm, treated cotton cotyledon leaf disc; design: key: A: 90–100; B: 80–89; C: 70–79; D: 60–69; E: 50–59; F: less than 50; G: Inactive; details: cotton cotyledon leaf-dip, 2nd instar larvae, 5 days
Excerpt: as §1

[5] = tested on: Sweetpotato Whitefly (Bemisia tabacia); assay: Insecticidal test for sweetpotato whitefly, spray on cotton plants; design: key: A: 90–100; B: 80–89; C: 70–79; D: 60–69; E: 50–59; F: less than 50; G: Inactive; details: 200 ppm spray, 13 days, large nymphs
Method: Insecticidal Test for Sweetpotato Whitefly (Bemisia tabacia)
Four mg of each test compound was dissolved by adding 4 mL of a 90:10 acetone:ethanol solvent mixture to the vial containing the sample compound. This solution was added to 16 mL of water containing 0.05% Tween 20 surfactant to produce 20 mL of an 200 ppm spray solution.
Five-week-old cotton plants reared in a greenhouse were stripped of all foliage except for the two uppermost true leaves that were greater than 5 cm in diameter. These plants were then placed into a laboratory colony of whiteflies for two days for oviposition by the colony females. All whiteflies were then removed from the test plants with pressurized air. The spray solution was then applied to the test plants with a hand-held syringe fitted with hollow cone nozzle. One mL spray solution was applied to each leaf top and bottom for a total of 4 mL per plant. Four replications of each test compound utilized a total of 16 mL spray solution. Plants were air dried and then placed in a holding chamber (28° C. and 60% RH) for 13 days. Compound efficacy was evaluated by counting, under an illuminated magnifying glass, the number of large nymphs (3rd–4th instar) per leaf.
Percent control based on reduction of large nymphs of a test compound compared to solution-only (no test compound) sprayed plants is reported in Tables 1–4.

[6] = tested on: Cotton Aphid (Aphis gossypii); assay: Insecticidal test for cotton aphid, spray on infested squash cotyledons; details: 50 ppm spray, 3 days
Method: Insecticidal Test for Cotton Aphid (Aphis gossypii)
To prepare spray solutions, 1 mg of each test compound was dissolved into 1 mL of a 90:10 acetone:ethanol solvent. This 1 mL of chemical solution was added to 19 mL of water containing 0.05% Tween 20 surfactant to produce a 50 ppm spray solution.
Squash cotyledons were infested with cotton aphid (all life stages) 16–20 hours prior to application of spray solution. The solution was sprayed on both sides of each infested squash cotyledon (0.5 mL×2 each side) with a sweeping action until runoff. The plants were allowed to air dry and held for 3 days in a controlled room at 26° C. and 40% RH after which time the test was graded. Grading was by actual count using a dissecting microscope and comparison of test counts to the untreated check. Results are given in Tables 1–4 as percent control based on population reduction versus the untreated.

Compound	BAW: activity at 400 ppm against beet armyworm (% control rating) [1]	SM: activity against two-spotted spider mite (% control rating) [2]	CL: activity at 400 ppm against cabbage looper (% control rating) [3]	TBW: activity at 400 ppm against tobacco budworm (% control rating) [4]	WF: activity at 200 ppm against whitefly (% control rating) [5]	CA: activity at 50 ppm against cotton aphid (% control rating) [6]
Cc1c(-c2ccc(OC(F)(F)C(F)C(F)(F)F)cc2)csc1-c1nc(-c2c(F)cccc2Cl)nn1C (centres unmarked)	A (90–100)	A (90–100)	A (90–100)	A (90–100)	A (90–100)	D (60–69)
Cc1cc(-c2ccc(OC(F)(F)C(F)Cl)cc2)sc1-c1nc(-c2c(F)cccc2Cl)nn1C (centres unmarked)	A (90–100)	A (90–100)	A (90–100)	A (90–100)	F (less than 50)	D (60–69)
Cc1c(-c2ccc(OC(F)(F)C(F)Br)cc2)csc1-c1nc(-c2c(F)cccc2Cl)nn1C (centres unmarked)	A (90–100)	G	A (90–100)	B (80–89)	A (90–100)	A (90–100)
Cc1sc(-c2cc(C(F)(F)F)ccc2F)cc1-c1nc(-c2c(F)cccc2Cl)nn1C	G	G	G	F (less than 50)	G	D (60–69)
Cc1sc(-c2ccc(OC(F)(F)C(F)C(F)(F)F)cc2)c(C)c1-c1nc(-c2c(F)cccc2Cl)nn1C (centres unmarked)	A (90–100)	G	A (90–100)	A (90–100)	G	E (50–59)
Cc1cc(-c2ccc(F)cc2)sc1-c1nc(-c2c(F)cccc2Cl)nn1C	D (60–69)	A (90–100)	A (90–100)	F (less than 50)	G	B (80–89)
Cn1nc(-c2c(F)cccc2Cl)nc1-c1cc(-c2ccc(C(F)(F)F)cc2F)sc1Cl	A (90–100)	G	A (90–100)	F (less than 50)	F (less than 50)	F (less than 50)
COCCOc1ccc(-c2scc(-c3nc(-c4c(F)cccc4Cl)nn3C)c2C)cc1	B (80–89)	D (60–69)	B (80–89)	G	F (less than 50)	C (70–79)
Cc1c(-c2nc(-c3c(F)cccc3Cl)nn2C)csc1-c1ccc(OC(C)C)cc1	G	G	G	F (less than 50)	G	A (90–100)
Cc1c(-c2nc(-c3c(F)cccc3Cl)nn2C)csc1-c1ccc(SCF)cc1	B (80–89)		G	G	F (less than 50)	B (80–89)
Cc1c(-c2nc(-c3c(F)cccc3F)nn2C)csc1-c1ccc(C(F)(F)F)cc1Cl	G	G	A (90–100)	G	G	E (50–59)
Cc1cc(-c2ccc(OC(C)C)cc2)sc1-c1nc(-c2c(F)cccc2Cl)nn1C	D (60–69)	A (90–100)	B (80–89)	G		D (60–69)
Cc1sc(-c2ccc(C(F)(F)F)cc2F)c(C)c1-c1nc(-c2c(F)cccc2Cl)nn1C	A (90–100)		A (90–100)	G		B (80–89)
